Measured values taken from patent publication US12011444B2, “N-substituted indole derivatives as PGE2 receptor modulators” (Idorsia Pharmaceuticals Ltd, priority 2015, dated 2024).

Key:
[1] = target: PTGER2 (EP2) (Homo sapiens (Human), UniProt P43116); assay: hEP2 b-arrestin assay (PathHunter HEK 293 PTGER2 b-arrestin cells); format: cell-based
Outline: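 Readout is β-galactosidase complementation luminescence, expressed as percent of DMSO control (duplicates). PathHunter HEK293 EP2/β-arrestin 2 cells, grown 24 h, received compound for 15 min at 37 °C before a 120 min challenge with PGE2 at 5 μM final, followed by 1 h detection at room temperature.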

[2] = target: PTRGER4 (EP4) (Homo sapiens (Human), UniProt P35408); assay: hEP4 b-arrestin assay (PathHunter HEK 293 PTGER4 b-arrestin cells); format: cell-based
Outline: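 Antagonist mode: compound is given 15 min at 37 °C, then 20 nM (final) PGE2 for 120 min, in HEK293 cells stably expressing EP4 fused to ProLink and β-arrestin 2 fused to EA. Recruitment read as β-gal luminescence after 1 h reagent at room temperature, as percent of DMSO control.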

[3] = hEP2 b-arrestin assay (values without asterisk)
[4] = hEP4 b-arrestin assay (values without asterisk)
[5] = antagonistic activity on hEP2, mean where measured multiple times
[6] = antagonistic activity on hEP4, mean where measured multiple times

Chain of PTRGER4 (EP4) (P35408 whole entry, looked up, the tested form may be a part): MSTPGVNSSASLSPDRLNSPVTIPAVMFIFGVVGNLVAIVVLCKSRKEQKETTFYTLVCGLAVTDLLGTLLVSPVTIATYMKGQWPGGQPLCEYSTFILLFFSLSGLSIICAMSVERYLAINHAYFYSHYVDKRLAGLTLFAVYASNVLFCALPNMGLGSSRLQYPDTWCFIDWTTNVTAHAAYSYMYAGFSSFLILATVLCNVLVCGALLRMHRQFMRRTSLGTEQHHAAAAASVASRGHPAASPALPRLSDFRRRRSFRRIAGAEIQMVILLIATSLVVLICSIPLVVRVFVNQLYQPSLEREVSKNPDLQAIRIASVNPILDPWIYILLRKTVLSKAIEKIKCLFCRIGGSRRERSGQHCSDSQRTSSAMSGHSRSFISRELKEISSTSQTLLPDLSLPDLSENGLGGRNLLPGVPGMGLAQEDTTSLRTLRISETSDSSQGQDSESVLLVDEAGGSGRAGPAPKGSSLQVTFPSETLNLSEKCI
Chain of PTGER2 (EP2) (P43116 whole entry): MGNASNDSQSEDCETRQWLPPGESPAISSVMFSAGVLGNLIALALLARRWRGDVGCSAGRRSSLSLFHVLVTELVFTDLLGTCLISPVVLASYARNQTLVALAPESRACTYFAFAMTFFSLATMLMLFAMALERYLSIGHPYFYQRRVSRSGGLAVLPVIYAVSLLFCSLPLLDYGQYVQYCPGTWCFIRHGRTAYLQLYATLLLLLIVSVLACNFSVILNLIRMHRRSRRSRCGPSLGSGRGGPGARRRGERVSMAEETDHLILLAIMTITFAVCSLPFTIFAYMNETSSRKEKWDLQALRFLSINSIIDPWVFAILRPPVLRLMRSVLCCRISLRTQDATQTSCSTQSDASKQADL

Row | Compound | IC50 [1, 3] | IC50 [2, 4] | IC50 [1, 5] | IC50 [2, 6]
1 | COc1ccc(F)c2c1cc(C#N)n2CCNc1cc(-c2cc(OC(C)C)c(C(=O)O)s2)ncn1 [Example 802, 5-{6-[2-(2-Cyano-7-fluoro-4-methoxy-indol-1-yl)-ethylamino]-pyrimidin-4-yl}-3-isopropoxy-thiophene-2-carboxylic acid] | 7 nM | 1 nM | – | –
2 | COc1ccc(F)c2c1cc(C#N)n2CCNc1cc(-c2ccc(C(=O)O)c(OC(F)F)c2)ncn1 [Example 917, 4-{6-[2-(2-Cyano-7-fluoro-4-methoxy-indol-1-yl)-ethylamino]-pyrimidin-4-yl}-2-difluoromethoxy-benzoic acid] | 24 nM | 35 nM | – | –
3 | COc1cc(Cl)cc2c1cc(C)n2CCNc1cc(-c2cc(OC(C)C)c(C(=O)O)s2)ncn1 [Example 869, 5-{6-[2-(6-Chloro-4-methoxy-2-methyl-indol-1-yl)-ethylamino]-pyrimidin-4-yl}-3-isopropoxy-thiophene-2-carboxylic acid] | 2 nM | 8 nM | – | –
4 | COc1cccc2c1cc(C)n2CCNc1cc(-c2ccc3nc(C)oc3c2)ncn1 [compound 60] | – | – | 85 nM | 290 nM
5 | Cc1ccc(F)c2c1cc(C)n2CCNc1cc(-c2ccc(C(=O)O)c(Cl)c2)ncn1 [compound 29, 2-Chloro-4-{6-[2-(7-fluoro-2,4-dimethyl-indol-1-yl)-ethylamino]-pyrimidin-4-yl}-benzoic acid] | – | – | 18 nM | 575 nM
6 | COc1ccc(F)c2c1cc(C#N)n2CCNc1cc(-c2ccc3[nH]c(=O)[nH]c3c2)ncn1 [Example 1000, 7-Fluoro-4-methoxy-1-{2-[6-(2-oxo-2,3-dihydro-1H-benzoimidazol-5-yl)-pyrimidin-4-ylamino]-ethyl}-1H-indole-2-carbonitrile] | 35 nM | 79 nM | – | –
7 | COc1ccc(F)c2c1cc(C#N)n2CCNc1cc(-c2ccc(-c3noc(=O)[nH]3)cc2)ncn1 [Example 825] | 14 nM | 8 nM | – | –
8 | COc1cc(F)cc2c1cc(C#N)n2CCNc1cc(-c2ccc(C(=O)O)c(SC(C)C)c2)ncn1 [Example 938, 4-{6-[2-(2-Cyano-6-fluoro-4-methoxy-indol-1-yl)-ethylamino]-pyrimidin-4-yl}-2-isopropylsulfanyl-benzoic acid] | 38 nM | 29 nM | – | –
9 | CCSc1cc(-c2cc(NCCn3c(C#N)cc4c(OC)cc(F)cc43)ncn2)ccc1C(=O)O [Example 954, 4-{6-[2-(2-Cyano-6-fluoro-4-methoxy-indol-1-yl)-ethylamino]-pyrimidin-4-yl}-2-ethylsulfanyl-benzoic acid] | 15 nM | 41 nM | – | –
10 | CCOc1cc(-c2cc(NCCn3c(C)cc4c(OC)ccc(F)c43)ncn2)sc1CO [Example 1031, (3-Ethoxy-5-{6-[2-(7-fluoro-4-methoxy-2-methyl-indol-1-yl)-ethylamino]-pyrimidin-4-yl}-thiophen-2-yl)methanol] | 3 nM | 19 nM | – | –
11 | CCOc1cc(-c2cc(NCCn3c(C#N)c(F)c4ccccc43)ncn2)sc1C(=O)O [Example 876, 5-{6-[2-(2-Cyano-3-fluoro-indol-1-yl)-ethylamino]-pyrimidin-4-yl}-3-ethoxy-thiophene-2-carboxylic acid] | 4 nM | 32 nM | – | –
12 | CCOc1cc(-c2cc(NCCn3c(C)cc4c(OC)ccc(F)c43)ncn2)sc1-c1nnn[nH]1 [Example 1051, {6-[4-Ethoxy-5-(1H-tetrazol-5-yl)-thiophen-2-yl]-pyrimidin-4-yl}-[2-(7-fluoro-4-methoxy-2-methyl-indol-1-yl)-ethyl]-amine] | 2 nM | 4 nM | – | –
13 | CCOc1cc(-c2cc(NCCn3c(C)cc4c(OC)cc(Cl)cc43)ncn2)sc1C(=O)O [Example 871, 5-{6-[2-(6-Chloro-4-methoxy-2-methyl-indol-1-yl)-ethylamino]-pyrimidin-4-yl}-3-ethoxy-thiophene-2-carboxylic acid] | 2 nM | 16 nM | – | –
14 | CCOc1cc(-c2cc(NCCn3c(C#N)cc4c(OC)ccc(F)c43)ncn2)sc1C(=O)NO [Example 1030, 5-{6-[2-(2-Cyano-7-fluoro-4-methoxy-indol-1-yl)-ethylamino]-pyrimidin-4-yl}-3-ethoxy-thiophene-2-carboxylic acid hydroxyamide] | 15 nM | 3 nM | – | –
15 | N#Cc1cc2c(Cl)cc(Cl)cc2n1CCNc1cc(-c2cc(F)c(C(=O)O)s2)ncn1 [Example 850, 5-{6-[2-(4,6-Dichloro-2-cyano-indol-1-yl)-ethylamino]-pyrimidin-4-yl}-3-fluoro-thiophene-2-carboxylic acid] | 2 nM | 79 nM | – | –
16 | COc1cc(F)cc2c1cc(C)n2CCNc1cc(-c2ccc3cc[nH]c3c2)ncn1 [compound 63, [2-(6-Fluoro-4-methoxy-2-methyl-indol-1-yl)-ethyl]-[6-(1H-indol-6-yl)-pyrimidin-4-yl]-amine] | – | – | 26 nM | 227 nM
17 | CCOC(=O)Cc1ccc(-c2cc(NCCn3c(C)cc4c(OC)ccc(F)c43)ncn2)cc1 [Example 897, (4-{6-[2-(7-Fluoro-4-methoxy-2-methyl-indol-1-yl)-ethylamino]-pyrimidin-4-yl}-phenyl)-acetic acid ethyl ester] | 380 nM | 453 nM | – | –
18 | COc1ccc(F)c2c1cc(C#N)n2CCNc1cc(-c2ccc(-c3c(O)c(=O)c3=O)cc2)ncn1 [Example 933, 7-Fluoro-1-(2-{6-[4-(2-hydroxy-3,4-dioxo-cyclobut-1-enyl)-phenyl]-pyrimidin-4-ylamino}-ethyl)-4-methoxy-1H-indole-2-carbonitrile] | 12 nM | 4 nM | – | –
19 | CCOc1cc(-c2cc(NCCn3c(C)cc4c(OC)ccc(F)c43)ncn2)sc1C(=O)O [Example 258, 3-Ethoxy-5-{6-[2-(7-fluoro-4-methoxy-2-methyl-indol-1-yl)-ethylamino]-pyrimidin-4-yl}-thiophene-2-carboxylic acid] | – | – | 1 nM | 10 nM

Continued, values first:

Row | IC50 [1, 3] | IC50 [2, 4] | IC50 [1, 5] | IC50 [2, 6] | Compound
20 | – | – | 18 nM | 216 nM | CCc1cc(-c2cc(NCCn3c(C)cc4c(C)ccc(F)c43)ncn2)ccc1C(=O)O [compound 220]
21 | – | – | 6 nM | 495 nM | CCCc1cc(-c2cc(NCCn3c(C)cc4c(C)cccc43)ncn2)ccc1C(=O)O [compound 120, 4-{6-[2-(2,4-Dimethyl-indol-1-yl)-ethylamino]-pyrimidin-4-yl}-2-propyl-benzoic acid]
22 | – | – | 2 nM | 394 nM | CNc1cc(-c2cc(NCCn3c(C)cc4c(F)ccc(C)c43)ncn2)ccc1C(=O)O [compound 211]
23 | – | – | 34 nM | 500 nM | COc1ccc(F)c2c1cc(C)n2CCNc1cc(-c2cc(F)c(S(N)(=O)=O)c(F)c2)ncn1 [compound 359, 2,6-Difluoro-4-{6-[2-(7-fluoro-4-methoxy-2-methyl-indol-1-yl)-ethylamino]-pyrimidin-4-yl}-benzenesulfonamide]
24 | – | – | 2 nM | 26 nM | CCOc1cc(-c2cc(NCCn3c(C)cc4c(C)cc(F)cc43)ncn2)sc1C(=O)O [compound 229]
25 | – | – | 32 nM | 128 nM | CCc1cc(-c2cc(NCCn3c(C)cc4cc(C)cc(F)c43)ncn2)sc1C(=O)O [compound 241]
26 | – | – | 27 nM | 590 nM | CCOc1cc(-c2cc(NCCn3c(C)cc4c(C)ccc(Cl)c43)ncn2)ccc1C(=O)O [compound 157, 4-{6-[2-(7-Chloro-2,4-dimethyl-indol-1-yl)-ethylamino]-pyrimidin-4-yl}-2-ethoxy-benzoic acid]
27 | – | – | 8 nM | 716 nM | CCOc1cc(-c2cc(NCCn3c(C)cc4cc(F)c(Cl)c(Cl)c43)ncn2)sc1C(=O)O [compound 272]
28 | – | – | 2 nM | 281 nM | CCNc1cc(-c2cc(NCCn3c(C)cc4c(F)ccc(F)c43)ncn2)ccc1C(=O)O [compound 243]
29 | – | – | 29 nM | 94 nM | Cc1cc(F)cc2c1cc(C)n2CCNc1cc(-c2ccc(-c3c[nH]cn3)cc2)ncn1 [compound 69, [2-(6-Fluoro-2,4-dimethyl-indol-1-yl)-ethyl]-{6-[4-(1H-imidazol-4-yl)-phenyl]-pyrimidin-4-yl}-amine]
30 | – | – | 42 nM | 232 nM | Cc1ccc(F)c2c1cc(C)n2CCNc1cc(-c2cc(Cl)c(C(=O)O)c(Cl)c2)ncn1 [compound 222]
31 | – | – | 22 nM | 262 nM | CCOc1cc(-c2cc(NCCn3c(C)cc4c(OC)ccc(F)c43)ncn2)cc(C)c1C(=O)O [compound 366, 2-Ethoxy-4-{6-[2-(7-fluoro-4-methoxy-2-methyl-indol-1-yl)-ethylamino]-pyrimidin-4-yl}-6-methyl-benzoic acid]
32 | – | – | 16 nM | 652 nM | CCOc1cc(-c2cc(NCCn3c(C)cc4c(Cl)cc(F)cc43)ncn2)ccc1C(=O)O [compound 280]
33 | – | – | 42 nM | 396 nM | CCSc1cc(-c2cc(NCCn3c(C)cc4c(C)c(F)cc(Cl)c43)ncn2)ccc1C(=O)O [compound 341, 4-{6-[2-(7-Chloro-5-fluoro-2,4-dimethyl-indol-1-yl)-ethylamino]-pyrimidin-4-yl}-2-ethylsulfanyl-benzoic acid]
34 | – | – | 19 nM | 382 nM | COc1ccc(F)c2c1cc(C)n2CCNc1cc(-c2ccc(S(=O)(=O)O)cc2)ncn1 [compound 116, 4-{6-[2-(7-Fluoro-4-methoxy-2-methyl-indol-1-yl)-ethylamino]-pyrimidin-4-yl}-benzenesulfonic acid]
35 | – | – | 27 nM | 405 nM | Cc1ccc(F)c2c1cc(C)n2CCNc1cc(-c2ccc(C(=O)O)c(C3CC3)c2)ncn1 [compound 174, 2-Cyclopropyl-4-{6-[2-(7-fluoro-2,4-dimethyl-indol-1-yl)-ethylamino]-pyrimidin-4-yl}-benzoic acid]
